Patent US8192962B2, “Processes for detecting toxic substances” (Daikin Industries, Ltd., priority 2001, dated 2012)

System: Genes belonging to other category
Assay: DNA chip mRNA expression in yeast, genes belonging to other category (Table 9)
Format: cell-based, Saccharomyces cerevisiae S288C
How it was run: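 Value is the scanned fluorescence intensity ratio of exposed versus chemical-free cells. Log-phase S288C yeast in YPD at 25° C. received one toxic substance for two hours, dosed to slow growth without killing; Cy3/Cy5-labeled cDNA from oligo-dT-purified mRNA was hybridized to a whole-genome chip at 65° C.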

## [Cl][Cd][Cl] [(2), CdCl2]
Yeast gene YKL008C
  The level of expressed mRNA in the presence of chemical substance/The level of expressed mRNA in the absence of chemical substance: 0.6
Yeast gene YKL013C
  The level of expressed mRNA in the presence of chemical substance/The level of expressed mRNA in the absence of chemical substance: 0.9
Yeast gene YKL039W
  The level of expressed mRNA in the presence of chemical substance/The level of expressed mRNA in the absence of chemical substance: 1.1
Yeast gene YKL096W
  The level of expressed mRNA in the presence of chemical substance/The level of expressed mRNA in the absence of chemical substance: 0.6
Yeast gene YKL165C
  The level of expressed mRNA in the presence of chemical substance/The level of expressed mRNA in the absence of chemical substance: 2.0
Yeast gene YKL193C
  The level of expressed mRNA in the presence of chemical substance/The level of expressed mRNA in the absence of chemical substance: 0.8
Yeast gene YLR120C
  The level of expressed mRNA in the presence of chemical substance/The level of expressed mRNA in the absence of chemical substance: 1.9
Yeast gene YLR136C
  The level of expressed mRNA in the presence of chemical substance/The level of expressed mRNA in the absence of chemical substance: 9.0
Yeast gene YLR178C
  The level of expressed mRNA in the presence of chemical substance/The level of expressed mRNA in the absence of chemical substance: 6.9
Yeast gene YLR250W
  The level of expressed mRNA in the presence of chemical substance/The level of expressed mRNA in the absence of chemical substance: 1.0
Yeast gene YLR327C
  The level of expressed mRNA in the presence of chemical substance/The level of expressed mRNA in the absence of chemical substance: 3.3
Yeast gene YLR356W
  The level of expressed mRNA in the presence of chemical substance/The level of expressed mRNA in the absence of chemical substance: 2.9
Yeast gene YLR362W
  The level of expressed mRNA in the presence of chemical substance/The level of expressed mRNA in the absence of chemical substance: 1.2
Yeast gene YLR391W
  The level of expressed mRNA in the presence of chemical substance/The level of expressed mRNA in the absence of chemical substance: 0.7
Yeast gene YLR429W
  The level of expressed mRNA in the presence of chemical substance/The level of expressed mRNA in the absence of chemical substance: 1.0
Yeast gene YMR004W
  The level of expressed mRNA in the presence of chemical substance/The level of expressed mRNA in the absence of chemical substance: 0.9
Yeast gene YMR094W
  The level of expressed mRNA in the presence of chemical substance/The level of expressed mRNA in the absence of chemical substance: 0.5
Yeast gene YMR104C
  The level of expressed mRNA in the presence of chemical substance/The level of expressed mRNA in the absence of chemical substance: 14.3
Yeast gene YMR219W
  The level of expressed mRNA in the presence of chemical substance/The level of expressed mRNA in the absence of chemical substance: 1.1
Yeast gene YMR226C
  The level of expressed mRNA in the presence of chemical substance/The level of expressed mRNA in the absence of chemical substance: 1.8
Yeast gene YMR275C
  The level of expressed mRNA in the presence of chemical substance/The level of expressed mRNA in the absence of chemical substance: 0.7
Yeast gene YMR276W
  The level of expressed mRNA in the presence of chemical substance/The level of expressed mRNA in the absence of chemical substance: 1.4
Yeast gene YMR314W
  The level of expressed mRNA in the presence of chemical substance/The level of expressed mRNA in the absence of chemical substance: 1.2
Yeast gene YNL006W
  The level of expressed mRNA in the presence of chemical substance/The level of expressed mRNA in the absence of chemical substance: 2.1
Yeast gene YNL007C
  The level of expressed mRNA in the presence of chemical substance/The level of expressed mRNA in the absence of chemical substance: 2.4
Yeast gene YNL093W
  The level of expressed mRNA in the presence of chemical substance/The level of expressed mRNA in the absence of chemical substance: 6.4
Yeast gene YNL333W
  The level of expressed mRNA in the presence of chemical substance/The level of expressed mRNA in the absence of chemical substance: 1.4
Yeast gene YNR010W
  The level of expressed mRNA in the presence of chemical substance/The level of expressed mRNA in the absence of chemical substance: 1.2
Yeast gene YNR069C
  The level of expressed mRNA in the presence of chemical substance/The level of expressed mRNA in the absence of chemical substance: 1.3
Yeast gene YOL013C
  The level of expressed mRNA in the presence of chemical substance/The level of expressed mRNA in the absence of chemical substance: 1.0
Yeast gene YOL164W
  The level of expressed mRNA in the presence of chemical substance/The level of expressed mRNA in the absence of chemical substance: 4.4
Yeast gene YOR036W
  The level of expressed mRNA in the presence of chemical substance/The level of expressed mRNA in the absence of chemical substance: 0.9
Yeast gene YOR117W
  The level of expressed mRNA in the presence of chemical substance/The level of expressed mRNA in the absence of chemical substance: 1.3
Yeast gene YOR124C
  The level of expressed mRNA in the presence of chemical substance/The level of expressed mRNA in the absence of chemical substance: 1.1
Yeast gene YOR132W
  The level of expressed mRNA in the presence of chemical substance/The level of expressed mRNA in the absence of chemical substance: 1.6
Yeast gene YOR157C
  The level of expressed mRNA in the presence of chemical substance/The level of expressed mRNA in the absence of chemical substance: 1.3
Yeast gene YOR181W
  The level of expressed mRNA in the presence of chemical substance/The level of expressed mRNA in the absence of chemical substance: 0.9
Yeast gene YOR185C
  The level of expressed mRNA in the presence of chemical substance/The level of expressed mRNA in the absence of chemical substance: 1.3
Yeast gene YOR198C
  The level of expressed mRNA in the presence of chemical substance/The level of expressed mRNA in the absence of chemical substance: 0.7
Yeast gene YOR259C
  The level of expressed mRNA in the presence of chemical substance/The level of expressed mRNA in the absence of chemical substance: 1.1
Yeast gene YOR261C
  The level of expressed mRNA in the presence of chemical substance/The level of expressed mRNA in the absence of chemical substance: 1.4
Yeast gene YOR288C
  The level of expressed mRNA in the presence of chemical substance/The level of expressed mRNA in the absence of chemical substance: 1.3
Yeast gene YOR355W
  The level of expressed mRNA in the presence of chemical substance/The level of expressed mRNA in the absence of chemical substance: 0.6
Yeast gene YOR383C
  The level of expressed mRNA in the presence of chemical substance/The level of expressed mRNA in the absence of chemical substance: 4.3
Yeast gene YPL089C
  The level of expressed mRNA in the presence of chemical substance/The level of expressed mRNA in the absence of chemical substance: 1.0
Yeast gene YPL109C
  The level of expressed mRNA in the presence of chemical substance/The level of expressed mRNA in the absence of chemical substance: 2.5
Yeast gene YPL149W
  The level of expressed mRNA in the presence of chemical substance/The level of expressed mRNA in the absence of chemical substance: 1.5
Yeast gene YPL154C
  The level of expressed mRNA in the presence of chemical substance/The level of expressed mRNA in the absence of chemical substance: 3.3
Yeast gene YPR103W
  The level of expressed mRNA in the presence of chemical substance/The level of expressed mRNA in the absence of chemical substance: 1.1
Yeast gene YPR108W
  The level of expressed mRNA in the presence of chemical substance/The level of expressed mRNA in the absence of chemical substance: 1.0
